From patent US8877778B2, “Benzofurane compounds” (Hoffmann-La Roche Inc., priority 2010, dated 2014)

Key:
human 5-HT2A receptor = human 5-HT2A receptor (Homo sapiens (Human), UniProt P28223); assay: Radioligand binding ([3H]-ketanserin) to cloned receptors expressed in HEK-293 EBNA cells; settings: HEK293 EBNA cell membranes expressing human 5-HT2A
How it was run: (§1)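 Membranes from transiently transfected HEK293 EBNA cells incubated 1 h at RT with ten compound concentrations (10 μM–0.1 nM). D2/D3: [3H]-spiperone ~0.7/0.5 nM, Tris–NaCl–Mg/Ca buffer pH 7.4; 5-HT2A: [3H]-ketanserin 1.1 nM, Tris–MgCl2–EGTA pH 7.4.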

human D2 receptor = human D2 receptor (Homo sapiens (Human), UniProt P14416); assay: Radioligand binding ([3H]-spiperone) to cloned receptors expressed in HEK-293 EBNA cells; settings: HEK293 EBNA cell membranes expressing human D2
Sequence of human D2 receptor (P14416 whole entry): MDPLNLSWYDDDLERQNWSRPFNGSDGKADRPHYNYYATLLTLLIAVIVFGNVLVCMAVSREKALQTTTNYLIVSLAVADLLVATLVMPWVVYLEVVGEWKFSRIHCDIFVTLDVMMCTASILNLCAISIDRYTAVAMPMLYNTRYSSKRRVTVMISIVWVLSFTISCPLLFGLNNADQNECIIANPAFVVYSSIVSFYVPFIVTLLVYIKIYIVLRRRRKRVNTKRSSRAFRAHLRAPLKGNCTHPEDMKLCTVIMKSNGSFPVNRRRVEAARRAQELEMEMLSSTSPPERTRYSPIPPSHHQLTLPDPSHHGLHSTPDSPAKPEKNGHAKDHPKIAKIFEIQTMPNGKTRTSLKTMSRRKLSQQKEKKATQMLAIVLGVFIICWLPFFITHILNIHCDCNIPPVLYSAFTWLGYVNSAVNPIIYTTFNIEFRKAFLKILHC
How it was run: as §1

human D3 receptor = human D3 receptor (Homo sapiens (Human), UniProt P35462); assay: as above; settings: HEK293 EBNA cell membranes expressing human D3
Sequence of human D3 receptor (P35462 whole entry): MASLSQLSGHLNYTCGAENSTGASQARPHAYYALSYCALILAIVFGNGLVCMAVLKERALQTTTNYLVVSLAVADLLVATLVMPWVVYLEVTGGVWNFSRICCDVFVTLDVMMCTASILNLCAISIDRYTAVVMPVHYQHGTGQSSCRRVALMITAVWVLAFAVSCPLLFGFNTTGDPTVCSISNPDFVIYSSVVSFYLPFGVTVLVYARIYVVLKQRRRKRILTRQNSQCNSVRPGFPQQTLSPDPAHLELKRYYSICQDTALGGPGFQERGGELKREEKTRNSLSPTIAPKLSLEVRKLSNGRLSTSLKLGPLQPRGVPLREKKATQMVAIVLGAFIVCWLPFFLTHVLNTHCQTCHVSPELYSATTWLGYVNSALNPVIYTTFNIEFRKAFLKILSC
How it was run: as §1

Sequence of human 5-HT2A receptor (P28223 whole entry): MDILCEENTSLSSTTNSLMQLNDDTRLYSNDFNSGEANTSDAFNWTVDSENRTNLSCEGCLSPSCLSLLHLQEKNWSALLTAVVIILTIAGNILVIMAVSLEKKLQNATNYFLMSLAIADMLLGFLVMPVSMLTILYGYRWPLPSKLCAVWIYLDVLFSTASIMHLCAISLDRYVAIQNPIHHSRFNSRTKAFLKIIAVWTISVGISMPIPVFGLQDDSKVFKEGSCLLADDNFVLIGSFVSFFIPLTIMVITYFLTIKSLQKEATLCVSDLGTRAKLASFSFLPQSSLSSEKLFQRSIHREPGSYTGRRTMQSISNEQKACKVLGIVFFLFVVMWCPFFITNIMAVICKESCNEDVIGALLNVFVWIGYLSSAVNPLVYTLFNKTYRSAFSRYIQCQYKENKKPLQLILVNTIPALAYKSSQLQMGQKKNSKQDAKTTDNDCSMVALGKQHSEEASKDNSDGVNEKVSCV

| Compound | melting point [°C] | Ki (human 5-HT2A receptor) [nM] | Ki (human D2 receptor) [nM] | Ki (human D3 receptor) [nM] | D2 Ki (human D2 receptor) |
| --- | --- | --- | --- | --- | --- |
| O=C(N[C@H]1CC[C@H](CCN2CCC(c3cccc4c3CCO4)CC2)CC1)c1ccc(N2CCOCC2)cc1 [Example 33, trans-N-(4-{2-[4-(2,3-Dihydro-benzofuran-4-yl)-piperidin-1-yl]-ethyl}-cyclohexyl)-4-morpholin-4-yl-benzamide] | 247 | 17.6 | 128 | 10.5 |  |
| O=C(N[C@H]1CC[C@H](CCN2CCC(c3cccc4c3CCO4)CC2)CC1)C1CCOC1 (mixture of isomers) [Example 52, (RS)-Tetrahydro-furan-3-carboxylic acid trans-(4-{2-[4-(2,3-dihydro-benzofuran-4-yl)-piperidin-1-yl]-ethyl}-cyclohexyl)-amide] | 211 | 24.6 | 135 | 5.5 |  |
| COCCC(=O)N[C@H]1CC[C@H](CCN2CCC(c3ccc(F)c4occc34)CC2)CC1 [Example 67, trans-N-(4-{2-[4-(7-Fluoro-benzofuran-4-yl)-piperidin-1-yl]-ethyl}-cyclohexyl)-3-methoxy-propionamide] | 177 | 31 | 613 | 9.28 |  |
| O=C(Cc1ccc2c(c1)OCO2)N[C@H]1CC[C@H](CCN2CCC(c3cccc4c3CCO4)CC2)CC1 [Example 94, trans-2-Benzo[1,3]dioxol-5-yl-N-(4-{2-[4-(2,3-dihydro-benzofuran-4-yl)-piperidin-1-yl]-ethyl}-cyclohexyl)-acetamide] | 209 | 45.3 | 721 | 3.65 |  |
| C/C=C/CC(=O)N[C@H]1CC[C@H](CCN2CCC(c3cccc4c3CCO4)CC2)CC1 [Example 85, (E)-Pent-3-enoic acid trans-(4-{2-[4-(2,3-dihydro-benzofuran-4-yl)-piperidin-1-yl]-ethyl}-cyclohexyl)-amide] | 196 | 77.3 | 438 | 5.79 |  |
| CC(C)(C)C(=O)N[C@H]1CC[C@H](CCN2CCC(c3cccc4c3CCO4)CC2)CC1 [Example 58, trans-N-(4-{2-[4-(2,3-Dihydro-benzofuran-4-yl)-piperidin-1-yl]ethyl}-cyclohexyl)-2,2-dimethyl-propionamide] | 192 | 50.6 | 378 | 65.1 |  |
| O=C(CO)N[C@H]1CC[C@H](CCN2CCC(c3cccc4c3CCO4)CC2)CC1 [Example 20, trans-N-(4-{2-[4-(2,3-Dihydro-benzofuran-4-yl)-piperidin-1-yl]-ethyl}-cyclohexyl)-2-hydroxy-acetamide] | 154.5 | 25.3 | 571 | 10 |  |
| CC#CC(=O)N[C@H]1CC[C@H](CCN2CCC(c3cccc4c3CCO4)CC2)CC1 [Example 86, But-2-ynoic acid trans-(4-{2-[4-(2,3-dihydro-benzofuran-4-yl)-piperidin-1-yl]-ethyl}-cyclohexyl)-amide] | 195 | 45.9 | 118 | 7.3 |  |
| COCC(=O)N[C@H]1CC[C@H](CCN2CCC(c3cccc4occc34)CC2)CC1 [Example 10, trans-N-{4-[2-(4-Benzofuran-4-yl-piperidin-1-yl)-ethyl]-cyclohexyl}-2-methoxy-acetamide] | 124 | 4.2 | 256 | 10.5 |  |
| O=C(CC1CCOCC1)N[C@H]1CC[C@H](CCN2CCC(c3ccc(F)c4occc34)CC2)CC1 [Example 66, trans-N-(4-{2-[4-(7-Fluoro-benzofuran-4-yl)-piperidin-1-yl]-ethyl}-cyclohexyl)-2-(tetrahydro-pyran-4-yl)-acetamide] | 187.5 | 30.9 | 616 | 20.1 |  |
| CC[C@@H](O)CC(=O)N[C@H]1CC[C@H](CCN2CCC(c3cccc4c3CCO4)CC2)CC1 [Example 81, (R)-3-Hydroxy-pentanoic acid trans-(4-{2-[4-(2,3-dihydro-benzofuran-4-yl)-piperidin-1-yl]-ethyl}-cyclohexyl)-amide] | 201 | 123 | 356 | 10 |  |
| O=C(CC1COC1)N[C@H]1CC[C@H](CCN2CCC(c3cccc4c3CCO4)CC2)CC1 [Example 80, trans-N-(4-{2-[4-(2,3-Dihydro-benzofuran-4-yl)-piperidin-1-yl]-ethyl}-cyclohexyl)-2-oxetan-3-yl-acetamide] | 197 | 55.5 | 196 | 4.27 |  |
| O=C(N[C@H]1CC[C@H](CCN2CCC(c3cccc4c3CCO4)CC2)CC1)c1ccccc1 [Example 17, trans-N-(4-{2-[4-(2,3-Dihydro-benzofuran-4-yl)-piperidin-1-yl]-ethyl}-cyclohexyl)-benzamide] | 220 | 11.4 | 319 | 4.2 |  |
| O=C(N[C@H]1CC[C@H](CCN2CCC(c3cccc4c3CCO4)CC2)CC1)C1(O)CC1 [Example 28, 1-Hydroxy-cyclopropanecarboxylic acid trans-(4-{2-[4-(2,3-dihydro-benzofuran-4-yl)-piperidin-1-yl]-ethyl}-cyclohexyl)-amide] | 164 | 9.3 | 299 | 8.4 |  |
| CN(C)C(=O)N[C@H]1CC[C@H](CCN2CCC(c3cccc4c3CCO4)CC2)CC1 [Example 83, trans-3-(4-{2-[4-(2,3-Dihydro-benzofuran-4-yl)-piperidin-1-yl]-ethyl}-cyclohexyl)-1,1-dimethyl-urea] | 260 | 121 | 69.9 | 44.2 |  |
| CCS(=O)(=O)N[C@H]1CC[C@H](CCN2CCC(c3cccc4c3CCO4)CC2)CC1 [Example 48, Ethanesulfonic acid trans-(4-{2-[4-(2,3-dihydro-benzofuran-4-yl)-piperidin-1-yl]-ethyl}-cyclohexyl)-amide] | 131 | 34.8 | 333 | 11.2 |  |
| COCCC(=O)N[C@H]1CC[C@H](CCN2CCC(c3cccc4occc34)CC2)CC1 [Example 2, trans-N-{4-[2-(4-Benzofuran-4-yl-piperidin-1-yl)-ethyl]-cyclohexyl}-3-methoxy-propionamide] | 154 | 7.1 | 288 | 3.1 |  |
| O=C(N[C@H]1CC[C@H](CCN2CCC(c3cccc4c3CCO4)CC2)CC1)c1ccc(C(F)(F)F)cc1 [Example 57, trans-N-(4-{2-[4-(2,3-Dihydro-benzofuran-4-yl)-piperidin-1-yl]-ethyl}-cyclohexyl)-4-trifluoromethyl-benzamide] | 228 | 135 | 1460 | 66.1 |  |
| O=C(N[C@H]1CC[C@H](CCN2CCC(c3cccc4c3CCO4)CC2)CC1)c1ccc(-c2ccccc2)cc1 [Example 91, Biphenyl-4-carboxylic acid trans-(4-{2-[4-(2,3-dihydro-benzofuran-4-yl)-piperidin-1-yl]-ethyl}-cyclohexyl)-amide] | 241 | 28.1 | 501 | 7.81 |  |
| CC(C)(C)c1ccc(C(=O)N[C@H]2CC[C@H](CCN3CCC(c4cccc5c4CCO5)CC3)CC2)cc1 [Example 71, trans-4-tert-Butyl-N-(4-{2-[4-(2,3-dihydro-benzofuran-4-yl)-piperidin-1-yl]-ethyl}-cyclohexyl)-benzamide] | 208 | 28.6 |  | 13.6 | inactive |
| CC(C)(O)CC(=O)N[C@H]1CC[C@H](CCN2CCC(c3cccc4c3CCO4)CC2)CC1 [Example 72, trans-N-(4-{2-[4-(2,3-Dihydro-benzofuran-4-yl)-piperidin-1-yl]-ethyl}-cyclohexyl)-3-hydroxy-3-methyl-butyramide] | 168 | 56.1 | 176 | 6.33 |  |
| O=C(N[C@H]1CC[C@H](CCN2CCC(c3cccc4c3CCO4)CC2)CC1)C1CCC1 [Example 26, Cyclobutanecarboxylic acid trans-(4-{2-[4-(2,3-dihydro-benzofuran-4-yl)-piperidin-1-yl]-ethyl}-cyclohexyl)-amide] | 197 | 20.4 | 145 | 8.4 |  |
| CC(C)(C)Oc1ccc(C(=O)N[C@H]2CC[C@H](CCN3CCC(c4cccc5c4CCO5)CC3)CC2)cc1 [Example 88, trans-4-tert-Butoxy-N-(4-{2-[4-(2,3-dihydro-benzofuran-4-yl)-piperidin-1-yl]-ethyl}-cyclohexyl)-benzamide] | 216 | 42.8 |  | 22.2 | inactive |
| CS(=O)(=O)c1ccc(C(=O)N[C@H]2CC[C@H](CCN3CCC(c4cccc5c4CCO5)CC3)CC2)cc1 [Example 95, trans-N-(4-{2-[4-(2,3-Dihydro-benzofuran-4-yl)-piperidin-1-yl]-ethyl}-cyclohexyl)-4-methanesulfonyl-benzamide] | 236 | 14.7 | 162 | 14 |  |
| COCC(=O)N[C@H]1CC[C@H](CCN2CCC(c3cccc4c3CCO4)CC2)CC1 [Example 14, trans-N-(4-{2-[4-(2,3-Dihydro-benzofuran-4-yl)-piperidin-1-yl]-ethyl}-cyclohexyl)-2-methoxy-acetamide] | 156 | 27.7 | 671 | 22.7 |  |
